Here are results for 5 molecules from article PMC3138877 (Cancer research, 2011).

Where two headings read alike, the source gives them in different places. A value given as a limit tells only on which side of the number the result lay.

The subject of data set [1] is PC-9 lung cancer cells (EGFR exon 19 del). As to the kind of experiment: Cell Titer Blue viability, PC-9. The data set is classed as cell-based, human. Conditions: read-out: IC50 PC-9. A general note: Alamar Blue is a resazurin reagent that responds to reducing activity.
The subject of data set [2] is HCC78 cells (SLC34A2-ROS fusion). As to the kind of experiment: Cell Titer Blue viability, HCC78. The data set is classed as cell-based, human.
Data set [3] has as its system H2030 lung cancer cells (KRAS G12C). As to the kind of experiment: Cell Titer Blue viability, H2030. The data set is classed as cell-based, human. Conditions: read-out: IC50 H2030.
The subject of data set [4] is HepG2 hepatocellular carcinoma cells. As to the kind of experiment: Cell Titer Blue viability, HepG2. It is filed as cell-based, human. The note with it: read-out: IC50 HepG2.
Data set [5] in a line: Pharmacokinetic study, plasma levels in mice. It is filed as in vivo. Conditions: for plasma level at 2 hours after dosing: mice, oral; for bioavailability in vivo / half-life in vivo: pharmacokinetic study.
Data set [6] has as its system H2228 lung cancer cells (EML4-ALK E6a/b;A20). As to the kind of experiment: Cell Titer Blue viability, H2228. It is filed as cell-based, human. Conditions: for IC50: read-out: IC50 H2228, 72h, Cell titer blue.
For data set [7], the system named is H3122 lung cancer cells harboring EML4-ALK E13;A20 (variant 1). As to the kind of experiment: Cell Titer Blue viability, H3122. The data set is classed as cell-based, human. The note with it: for fold more potent than PF-1066 in H3122: growth inhibition.
In data set [8] the test system is HCC78 cells (SLC34A2-ROS fusion). Conditions: cited from earlier work.
Data set [9] relates to SY5Y neuroblastoma cells (ALK F1174L). As to the kind of experiment: Cell Titer Blue viability, SY5Y. The data set is classed as cell-based, human. Conditions: read-out: IC50 SY5Y, 72h.
The target of data set [10] is ALK (Homo sapiens, UniProt Q9UM73). As to the kind of experiment: Ambit KINOMEscan dose-response profiling, ALK. Conditions: for IC50: read-out: IC50 ALK (Ambit assays), Biochemical potency, Kinomescan.
ALK, sequence (Q9UM73 19-1620): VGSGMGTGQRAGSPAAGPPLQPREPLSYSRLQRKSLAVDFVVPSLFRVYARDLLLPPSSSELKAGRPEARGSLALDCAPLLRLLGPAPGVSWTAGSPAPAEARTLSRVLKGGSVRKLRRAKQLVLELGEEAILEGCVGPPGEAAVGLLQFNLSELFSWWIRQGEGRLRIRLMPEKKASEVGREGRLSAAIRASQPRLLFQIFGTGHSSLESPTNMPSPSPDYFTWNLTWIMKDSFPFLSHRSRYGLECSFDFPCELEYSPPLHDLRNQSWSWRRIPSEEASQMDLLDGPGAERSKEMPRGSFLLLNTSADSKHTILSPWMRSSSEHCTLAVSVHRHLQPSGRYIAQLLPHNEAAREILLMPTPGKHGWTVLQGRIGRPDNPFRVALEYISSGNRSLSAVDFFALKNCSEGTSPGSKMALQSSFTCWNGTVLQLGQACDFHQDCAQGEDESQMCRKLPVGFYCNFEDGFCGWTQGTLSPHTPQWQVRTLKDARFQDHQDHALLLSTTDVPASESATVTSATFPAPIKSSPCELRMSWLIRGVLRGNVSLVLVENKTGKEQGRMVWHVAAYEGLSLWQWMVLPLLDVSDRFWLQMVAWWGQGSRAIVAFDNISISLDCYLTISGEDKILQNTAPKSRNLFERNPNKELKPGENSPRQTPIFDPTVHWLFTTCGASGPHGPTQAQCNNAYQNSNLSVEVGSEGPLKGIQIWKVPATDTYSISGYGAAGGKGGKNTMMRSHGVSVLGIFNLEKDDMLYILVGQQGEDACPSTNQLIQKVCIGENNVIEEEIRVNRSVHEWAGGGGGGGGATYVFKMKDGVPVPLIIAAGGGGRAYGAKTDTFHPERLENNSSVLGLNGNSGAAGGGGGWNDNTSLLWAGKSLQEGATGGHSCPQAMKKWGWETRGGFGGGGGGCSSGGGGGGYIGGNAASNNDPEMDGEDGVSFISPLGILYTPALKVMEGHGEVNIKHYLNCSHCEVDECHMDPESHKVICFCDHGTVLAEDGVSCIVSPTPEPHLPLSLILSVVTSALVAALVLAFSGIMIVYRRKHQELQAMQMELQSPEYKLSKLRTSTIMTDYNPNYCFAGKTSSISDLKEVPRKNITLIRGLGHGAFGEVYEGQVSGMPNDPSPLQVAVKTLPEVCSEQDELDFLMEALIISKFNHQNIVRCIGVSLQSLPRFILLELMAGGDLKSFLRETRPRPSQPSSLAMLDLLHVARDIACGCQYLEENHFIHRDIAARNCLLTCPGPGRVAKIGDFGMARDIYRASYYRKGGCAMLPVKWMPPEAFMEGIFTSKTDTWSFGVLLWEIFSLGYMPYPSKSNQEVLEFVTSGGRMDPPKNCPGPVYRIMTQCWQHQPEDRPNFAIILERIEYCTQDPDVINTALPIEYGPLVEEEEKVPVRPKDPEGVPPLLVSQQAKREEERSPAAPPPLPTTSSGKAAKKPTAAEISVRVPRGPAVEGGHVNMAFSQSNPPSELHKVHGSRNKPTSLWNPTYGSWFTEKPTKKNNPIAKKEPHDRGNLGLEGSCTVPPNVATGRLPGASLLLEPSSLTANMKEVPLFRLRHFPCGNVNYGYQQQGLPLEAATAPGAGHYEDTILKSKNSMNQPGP
Data set [11] relates to MKN-45 gastric carcinoma cells (MET dependent). As to the kind of experiment: Cell Titer Blue viability, MKN-45. It is filed as cell-based, human. The note with it: read-out: IC50 MKN-45, 72h.
For data set [12], the system named is Ba/F3 cells expressing EML4-ALK E13;A20 L1196M. As to the kind of experiment: Cell Titer Blue viability, Ba/F3 EML4-ALK L1196M. It is filed as cell-based. The note with it: 72h.
Data set [13] deals with EML4-ALK E13;A20 C1156Y (Homo sapiens, UniProt Q9HC35+Q9UM73, C1156Y). As to the kind of experiment: Surrogate kinase assay, C1156Y mutant in 293 cells. The data set is classed as cell-based. Conditions: 2 hours, at higher concentrations than for wild-type fusion.
Data set [14] in a line: Blood-brain-barrier penetration in C57BL/6J mice. The data set is classed as in vivo. The note with it: for brain penetration (brain tissue concentration as % of plasma level): C57BL/6J mice, 2 hours after dosing.
Data set [15] concerns the target MET (Homo sapiens, UniProt P08581). As to the kind of experiment: Ambit KINOMEscan dose-response profiling, MET. The note with it: read-out: IC50 MET (Ambit assays), Biochemical potency.
Data set [16] relates to EML4-ALK E13;A20 in H3122 lung cancer cells. As to the kind of experiment: Endogenous ALK phosphorylation immunoblot in H3122. The data set is classed as cell-based, human. Conditions: 1 hour treatment, compared to PF-1066.
Data set [17] addresses EML4-ALK E13;A20 (Homo sapiens, UniProt Q9HC35+Q9UM73). As to the kind of experiment: Surrogate kinase assay. It is filed as cell-based. Conditions: 2 hours treatment, immunoblot, compared with PF-1066. On the technique in general: In western blotting, separated proteins are transferred to a membrane and probed.
Data set [18] concerns SUDHL-1 lymphoma cells (NPM-ALK). As to the kind of experiment: Cell Titer Blue viability, SUDHL-1. The data set is classed as cell-based, human. The note with it: read-out: IC50 SUDHL-1, 72h.
The target of data set [19] is EML4-ALK E13;A20 L1196M (Homo sapiens, UniProt Q9HC35+Q9UM73, L1196M). As to the kind of experiment: Surrogate kinase assay, L1196M mutant in 293 cells. The data set is classed as cell-based. The note with it: 2 hours, at higher concentrations than for wild-type fusion.
Data set [20] deals with Ba/F3 cells expressing EML4-ALK E13;A20 WT. As to the kind of experiment: Cell Titer Blue viability, Ba/F3 EML4-ALK WT. The data set is classed as cell-based.
For data set [21], the system named is Ba/F3 cells expressing EML4-ALK E13;A20 C1156Y. As to the kind of experiment: Cell Titer Blue viability, Ba/F3 EML4-ALK C1156Y. It is filed as cell-based. The note with it: 72h.
Data set [22] concerns H3122 xenografts. As to the kind of experiment: H3122 xenograft study in nude mice. Conditions: for growth of H3122 xenograft tumors vs vehicle: nude mice, oral gavage; for mouse weight: xenograft experiment. The data set is classed as in vivo.
The nature of data set [23]: 10-day repeated oral toxicity study in SD rats. Conditions: for no significant toxicity (NST) level: 10 days repeated oral administration.
The target in data set [24] is ROS1 (Homo sapiens, UniProt P08922). As to the kind of experiment: Ambit screen, ROS1. The note with it: read-out: IC50 ROS1 in vitro (Ambit screen); racemic forms.
Data set [25] relates to H3122 cells. As to the kind of experiment: Annexin V / propidium iodide apoptosis assay. It is filed as cell-based, human. Conditions: 72h, increasing concentrations.
Data set [26] relates to EML4-ALK E13;A20, EML4-ALK E20;A20, EML4-ALK E6b;A20 and KIF5B-ALK. As to the kind of experiment: Surrogate kinase assays on four ALK variants in 293 cells. It is filed as cell-based.
The mark [27] stands for this setting: read-out: IC50 HCC78, 72h, Cell titer blue.
Where [28] appears, read: 72 hours, Chou-Talalay and Mix-Low methods.
The mark [29] stands for this setting: read-out: IC50 H3122, 72h, Cell titer blue.

MET, sequence (P08581 25-1390): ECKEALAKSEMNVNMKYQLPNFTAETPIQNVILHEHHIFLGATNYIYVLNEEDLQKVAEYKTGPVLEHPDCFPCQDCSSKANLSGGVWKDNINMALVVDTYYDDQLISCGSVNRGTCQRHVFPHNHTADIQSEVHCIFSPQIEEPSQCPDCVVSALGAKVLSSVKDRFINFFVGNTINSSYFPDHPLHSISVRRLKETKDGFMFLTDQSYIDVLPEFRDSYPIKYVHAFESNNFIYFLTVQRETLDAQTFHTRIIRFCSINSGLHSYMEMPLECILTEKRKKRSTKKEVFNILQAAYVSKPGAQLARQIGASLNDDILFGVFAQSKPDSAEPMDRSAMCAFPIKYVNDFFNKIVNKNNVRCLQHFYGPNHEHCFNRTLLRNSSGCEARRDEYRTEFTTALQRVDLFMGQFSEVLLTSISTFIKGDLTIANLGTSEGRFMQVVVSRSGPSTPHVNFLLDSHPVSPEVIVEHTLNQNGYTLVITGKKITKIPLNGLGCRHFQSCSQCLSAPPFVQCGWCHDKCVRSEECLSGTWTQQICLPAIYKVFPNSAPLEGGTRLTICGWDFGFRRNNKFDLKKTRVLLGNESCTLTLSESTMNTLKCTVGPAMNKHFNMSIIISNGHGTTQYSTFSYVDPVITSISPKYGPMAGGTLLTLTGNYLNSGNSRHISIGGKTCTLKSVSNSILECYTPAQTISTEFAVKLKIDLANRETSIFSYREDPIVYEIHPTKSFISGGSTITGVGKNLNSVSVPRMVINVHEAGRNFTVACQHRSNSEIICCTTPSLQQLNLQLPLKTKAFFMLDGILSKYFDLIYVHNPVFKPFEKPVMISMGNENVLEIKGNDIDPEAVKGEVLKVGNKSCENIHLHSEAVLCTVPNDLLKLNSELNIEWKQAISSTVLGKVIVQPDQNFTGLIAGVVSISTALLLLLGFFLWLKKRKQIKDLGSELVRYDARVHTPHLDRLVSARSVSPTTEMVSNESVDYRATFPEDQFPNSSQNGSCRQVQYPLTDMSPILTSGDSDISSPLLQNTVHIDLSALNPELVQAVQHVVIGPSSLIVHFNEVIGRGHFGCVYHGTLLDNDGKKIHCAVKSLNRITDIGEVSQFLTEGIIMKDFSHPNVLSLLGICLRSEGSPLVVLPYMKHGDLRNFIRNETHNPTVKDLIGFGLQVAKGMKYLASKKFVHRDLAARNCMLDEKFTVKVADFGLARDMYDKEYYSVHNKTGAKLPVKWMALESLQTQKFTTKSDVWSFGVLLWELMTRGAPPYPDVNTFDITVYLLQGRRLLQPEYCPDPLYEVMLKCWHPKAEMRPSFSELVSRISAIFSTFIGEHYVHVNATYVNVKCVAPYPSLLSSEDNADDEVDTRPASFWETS

For the molecule `C[C@@H](Oc1cc(-c2cnn(C3CCNCC3)c2)cnc1N)c1c(Cl)ccc(F)c1Cl` [PF-1066, crizotinib, reference compound], the IC50 in [1] (Homo sapiens, 72 h) was found to be 1670 nM; in [2] (Homo sapiens, HCC78, 72 h, read-out: IC50 HCC78, 72h, Cell titer blue), 1400 nM; in data set [2] (setting [27]) it was 1360 nM; in data set [3] (Homo sapiens, NCI-H2030, 72 h), 2470 nM; in [4] (Homo sapiens, HepG2, 72 h), 14500 nM. The same molecule registered a concentration at 2 h in data set [5] (athymic nude (nu/nu), mouse, plasma, po, 50 mg/kg) of 10.2 µM.

Consider `CO[C@H]1C[C@@H]2CC[C@@H](C)[C@@](O)(O2)C(=O)C(=O)N2CCCC[C@H]2C(=O)O[C@H]([C@H](C)C[C@@H]2CC[C@@H](O)[C@H](OC)C2)CC(=O)[C@H](C)/C=C(\C)[C@@H](O)[C@@H](OC)C(=O)[C@H](C)C[C@H](C)/C=C/C=C/C=C/1C` [Rapamycin, rapamycin, reference compound], for which the “proliferation of H2228 cells, rapamycin alone” value in [6] (72 hours) is recorded as “small but reproducible decrease”. In addition, the “proliferation of H3122 cells, rapamycin alone” value in data set [7] (72 hours) is “small but reproducible decrease”.

Regarding `COc1cc(N2CCC(N3CCN(C)CC3)CC2)ccc1Nc1ncc(Cl)c(Nc2ccccc2S(=O)(=O)C(C)C)n1` [TAE-684, reference compound], the “sensitivity of HCC78 cells” value in data set [8] is “moderate sensitivity”. Besides, the IC50 in [7] (Homo sapiens, NCI-H3122, 72 h, read-out: IC50 H3122 cell growth) was 5 nM.

On to `C[C@@H]1CN(C(=O)c2ccc(NC(=O)c3cc(O[C@H](C)c4c(Cl)ccc(F)c4Cl)c(N)nn3)cc2)C[C@H](C)N1` [X-396], for which the IC50 in [9] is 68 nM; in data set [10] it was below 0.4 nM; in [11], 156 nM; in data set [1] (72h, Cell titer blue), 2990 nM; in data set [2] (setting [27]) it was above 3000 nM; in data set [12] (read-out: IC50 Ba/F3 + EML4-ALK E13;A20 L1196M, Cell titer blue), 106 nM. Besides, the IC50 is at most 100 nM in data set [12] (read-out: IC50 Ba/F3 EML4-ALK E13;A20 L1196M); 0.74 nM in [15]; 45 nM in data set [6]; 9 nM in data set [18]; 757 nM in data set [3] (72h, Cell titer blue); 9640 nM in data set [4] (72h, Cell titer blue). In addition, the IC50 in [7] (setting [29]) is 15 nM; in data set [20] (read-out: IC50 Ba/F3 + EML4-ALK E13;A20 WT, 72h, Cell titer blue), 22 nM; in data set [21] (read-out: IC50 Ba/F3 + EML4-ALK E13;A20 C1156Y, Cell titer blue), 48 nM; in data set [21] (read-out: IC50 Ba/F3 EML4-ALK E13;A20 C1156Y) it was at most 100 nM. Further, the “fold more potent against ALK compared to PF-1066” value in data set [10] is given as “approximately 10 fold”. The “ALK autophosphorylation, C1156Y” value in data set [13] was “significantly diminished”. Besides, in data set [14] (25mg/kg), the “brain penetration (brain tissue concentration as % of plasma level)” value worked out at 13%. In addition, the “projected concentration in human brain” value in [14] (projection from mouse study at a human plasma level of ∼500nM) was “about 65 nM”. Moreover, the “endogenous ALK phosphorylation in H3122” value in data set [16] is listed as “inhibited ALK phosphorylation at lower concentrations of drug”. Also, the “phospho-ALK in 293 cells transfected with EML4-ALK E13;A20” value in [17] is recorded as “greater reductions in phospho-ALK at lower concentrations of drug”. Further, the “cell growth of H2228, combination with rapamycin” value in data set [6] (setting [28]) is “synergistic decrease of cell growth”. The “ALK autophosphorylation, L1196M” value in [19] is recorded as “significantly diminished”. For the same molecule, the “cell growth of H3122, combination with rapamycin” value in data set [7] (setting [28]) was “synergistic decrease of cell growth”. Further, in [7], the “fold more potent than PF-1066 in H3122” value stood at 10 fold. Moreover, the “fold more potent than PF-1066 in Ba/F3 EML4-ALK E13;A20 wild-type” value in data set [20] (growth inhibition) is around 10 fold. Besides, the “growth of H3122 xenograft tumors vs vehicle” value in [22] (25mg/kg bid) was “significantly delayed the growth of tumors”. Further, the mouse weight entry in [22] (25mg/kg bid) is recorded as “unaffected”. For the same molecule, in data set [5] (25mg/kg), the “plasma level at 2 hours after dosing” value was determined as 2.28 µM. Also, the bioavailability in vivo result in data set [5] is recorded as “substantial bioavailability”. Also, in data set [5], the half-life in vivo entry is “moderate half-lives”. The “increase of the liver enzymes AST and ALT at NST level” value in data set [23] (80mg/kg) is recorded as below 50%. Further, the “no significant toxicity (NST) level” value in [23] came out at 80 mg/kg.

For the molecule `C[C@@H](Oc1cc(C(=O)Nc2ccc(C(=O)N3CCN(C)CC3)cc2)nnc1N)c1c(Cl)ccc(F)c1Cl` [X-376], the IC50 in [9] was 142 nM; in data set [10] it was 0.61 nM; in data set [11] it was 150 nM; in [24], 19 nM; in [1] (72h, Cell titer blue) it was 3060 nM; in data set [2] (setting [27]), above 3000 nM. The IC50 in data set [15] worked out at 0.69 nM; in data set [6], 57 nM; in [18] it was 32 nM; in data set [3] (72h, Cell titer blue), 1430 nM; in [4] (72h, Cell titer blue) it was 15100 nM; in data set [7] (setting [29]), 77 nM. Further, the “fold more potent against ALK compared to PF-1066” value in [10] was “approximately 10 fold”. Further, the “apoptosis (Annexin V and propidium iodide)” value in [25] is recorded as “increased apoptosis”. The “brain penetration (brain tissue concentration as % of plasma level)” value in [14] (50mg/kg) was “less”. In [17], the “phospho-ALK in 293 cells transfected with EML4-ALK E13;A20” value is reported as “greater reductions in phospho-ALK at lower concentrations of drug”. Moreover, in [26], the “inhibition of ALK kinase activity of four ALK fusions” value is on record as “dose-dependent inhibition of ALK kinase activity”. For the same molecule, the “differences in sensitivity among the four ALK variants” value in data set [26] (quantitative examination of immunoblots (data not shown)) is recorded as “no major differences in sensitivity”. Moreover, the “fold more potent than PF-1066 in H3122” value in [7] is recorded as 3 fold. The “growth of H3122 xenograft tumors vs vehicle” value in data set [22] (50mg/kg bid) was “significantly delayed the growth of tumors”. Also, in data set [22] (50mg/kg bid), the mouse weight result was “unaffected”. In addition, in data set [5] (50mg/kg), the “plasma level at 2 hours after dosing” value was found to be 6.27 µM. Also, the bioavailability in vivo result in data set [5] is “substantial bioavailability”. In data set [5], the half-life in vivo entry is given as “moderate half-lives”. Besides, the “increase of the liver enzymes AST and ALT at NST level” value in data set [23] (50 mg/kg) is reported as below 50%. Further, in [23], the “no significant toxicity (NST) level” value is listed as 50 mg/kg.
